Data on 32 sequences can be found in the supplement of paper PMC11208160.
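Note: IS621 recombinase and bridge RNA in Escherichia coli cells.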

A short description of the data set: recombinant barcode read abundance after kanamycin selection (control-corrected) (log10(CPM+1)); higher = more efficient recombination; sequences stand for … in AGTGCAGAGAAAATCGGCCAGTTTTCTCTGCCTGCAGTCCGCATGCCGT…AGATTTATGCAGCGGACTGCCTTTCTCCCAAAGTGATAAACCGGACAGTATCATGGACCGGTTTTCCCGGTAATCCGTATTTGCAAGGTTGGTTTCACT; site = the 11-nt target. The procedure, abridged:
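This pooled E. coli screen matched targets with IS621 bridge RNA target-binding loops. Plating was done in duplicate on chloramphenicol/ampicillin LB agar as a control and on chloramphenicol/ampicillin/kanamycin plus 0.1 mM IPTG. Recombination efficiency reflects barcode counts at recombinant junctions as counts per million, averaged and control-corrected. The figures are log10(CPM+1).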
Regarding “TGATCTCCTTGGGTTCTAACCTGTTGCTT (site TGATCTCCTAT)”, the “recombinant barcode read abundance (log10)” value was 0.0466. As for “TGCCAGCCTTGGGTTCTAACCTGTTGCCT (site TGCCAGACTAT)”, the figure is 0.114; as for “TGCCAGCCTTGGGTTCTAACCTGTTGCCT (site TGCCAGCCTAG)”, 0.0668.

With “TGCCTATCTTGGGTTCTAACCTGTTGCCT (site TACCTATCTAG)”, the “recombinant barcode read abundance (log10)” value was 0.234. On to “TGCCTATCTTGGGTTCTAACCTGTTGCCT (site TCCCTATCTAG)”, for which the “recombinant barcode read abundance (log10)” value is 0.0417. Consider “TGCCTATCTTGGGTTCTAACCTGTTGCCT (site TGCCTATCTAG)”, for which the “recombinant barcode read abundance (log10)” value came out at 0.28. To “TGCCTATCTTGGGTTCTAACCTGTTGCCT (site TTCCTATCTAG)” belongs 0.0491.

As for “TGCGAGTCTTGGGTTCTAACCTGTTGCGT (site TGCGAGTCTAC)”, the “recombinant barcode read abundance (log10)” value is 2.87.

Consider “TGCGAGTCTTGGGTTCTAACCTGTTGCGT (site TTCGAGTCTCC)”, for which the “recombinant barcode read abundance (log10)” value was 0.0688. “TGCGCAACTTGGGTTCTAACCTGTTGCCT (site TGCGCAACTAG)”: the “recombinant barcode read abundance (log10)” value amounted to 0.0344. As for “TGCGCAACTTGGGTTCTAACCTGTTGCCT (site TGCGCCACTAG)”, the figure is 0.256; as for “TGCGCAACTTGGGTTCTAACCTGTTGCCT (site TGCGCGACTAG)”, 0.0979; as for “TGCGCAACTTGGGTTCTAACCTGTTGCCT (site TGCGCTACTAG)”, 0.0921. Take “TGCGCGACTTGGGTTCTAACCTGTTGCCT (site TGCGCAACTAG)”: the “recombinant barcode read abundance (log10)” value worked out at 0.0131. Turning to “TGCGCGACTTGGGTTCTAACCTGTTGCCT (site TGCGCCACTAG)”, the “recombinant barcode read abundance (log10)” value came to 0.0885. As for “TGCGCGACTTGGGTTCTAACCTGTTGCCT (site TGCGCGACTAG)”, the figure is 0.032. As for “TGCGCGACTTGGGTTCTAACCTGTTGCCT (site TGCGCTACTAG)”, the figure is 0.0869; as for “TGCGGAGCTTGGGTTCTAACCTGTTGCCT (site TGCCGACCTAG)”, 0.163; as for “TGCGGAGCTTGGGTTCTAACCTGTTGCCT (site TGCGGAGCTAG)”, 0.875.

Regarding “TGCGGAGCTTGGGTTCTAACCTGTTGCGG (site AACGGAGCTCC)”, the “recombinant barcode read abundance (log10)” value came to 0.348. As for “TGCGGAGCTTGGGTTCTAACCTGTTGCGG (site TGCGGAGCTCC)”, the figure is 1.81; as for “TGCGTGTCTTGGGTTCTAACCTGTTGCTG (site TACGTGTCTTA)”, 0.0382; as for “TGCGTGTCTTGGGTTCTAACCTGTTGCTG (site TGCGTGTCTCA)”, 1.6.

Turning to “TGCTGGGCTTGGGTTCTAACCTGTTGCTG (site CTTCATTCTAG)”, the “recombinant barcode read abundance (log10)” value was 0.225. As for “TGCTGGGCTTGGGTTCTAACCTGTTGCTG (site TGCTGGGCTCA)”, the figure is 0.32; as for “TGCTGTCCTTGGGTTCTAACCTGTTGCCT (site TGCTGTACTAG)”, 0.2.

On to “TGCTGTCCTTGGGTTCTAACCTGTTGCCT (site TGCTGTCCTAG)”, for which the “recombinant barcode read abundance (log10)” value came to 0.111. To “TGCTGTCCTTGGGTTCTAACCTGTTGCCT (site TGCTGTGCTAG)” belongs 0.139; to “TGCTGTCCTTGGGTTCTAACCTGTTGCCT (site TGCTGTTCTAG)”, 0.0325.

As to “TGCTGTCCTTGGGTTCTAACCTGTTGCTT (site CAGACGACTTG)”, the “recombinant barcode read abundance (log10)” value amounted to 0.127. As for “TGCTGTCCTTGGGTTCTAACCTGTTGCTT (site TGCTGTCCTAA)”, the figure is 0.00473. Regarding “TGGAACCCTTGGGTTCTAACCTGTTGCGG (site TGGAACCCTCC)”, the “recombinant barcode read abundance (log10)” value turned out to be 0.706.
